Values joined by “and” are separate entries in the source; they are usually repeats but may differ in a detail not shown here. Identical values can stand only once. Counter-ions that a name gives are not always drawn.
Legend:
[1] = system: MDCKII-wt monolayer; assay: Membrane permeation across MDCKII-wt monolayers (Transwell)
Protocol: (§1) In vitro permeation studies were also performed on prodrug/enzyme mixtures prepared at various prodrug and enzyme concentrations. […] The experiments were carried out as follows. Maden Darby Canine Kidney-II wild type (MDCK-IIwt) cells were plated on thin membranes in a six well Transwell apparatus. Following confluence and washing, assay buffer (PBS, pH 7.4) was introduced into the basal side of the membrane. At time zero, solutions of various concentrations of prodrug were combined with 0.25 U/ml of A.O protease and introduced on the […] side of the membrane. Aliquots were then taken, with replacement, from both the basal and apical sides, and assayed for both drug and prodrug. The integrity of the membranes throughout the experiment was confirmed by transepithelial resistance (TEER) and inulin permeation measurements.
(§2) Following previously published procedures (Kapoor M, et al., AAPS J, 2014, 16, 3, 577-585; and Kapoor M, et al., Mol Pharm, 2013, 10, 9, 519-3524), Madin Darby canine kidney II wild type (MDCKII-wt: passages between 10 and 20) cells were cultured and grown as monolayers in 12-well Transwell plates ([…] pore size, polyester, Corning). Transepithelial electrical resistance (TEER) was measured to assure membrane integrity just prior to conversion/permeation experiments. TEER and a Lucifer yellow dye permeability assay were used to reassess monolayer integrity at the conclusion of each experiment.
(§3) In separate experiments, solutions containing 900 μM AVFp or AVFm were rapidly mixed with A.O. protease (4 U/mL) in assay buffer (pH 7.4 at 32° C.), and administered at time zero on the apical side of MDCKII-wt monolayers cultured in a 12-well Transwell plate (Kapoor M, et al., AAPS J, 2014, 16, 3, 577-585; and Kapoor M, et al., Mol Pharm, 2013, 10, 9, 519-3524).
(§4) To assess transport of MDZ through the MDCKII-wt monolayer membrane, MDZ, 55 μM (S=1) was introduced on the apical side of the monolayer in a 12-well Transwell, and accumulation of MDZ on the basal side was assayed as a function of time.

[2] = system: A.O. protease (Aspergillus Oryzae); assay: Enzyme kinetics of prodrug conversion by A.O. protease (HPLC, integrated Michaelis-Menten fit); format: biochemical; conditions: for conversion of prodrug to DZP: 480 μM prodrug, A.O. protease 2-8 U/mL; for conversion of prodrug to DZP / Km / Vmax: assay buffer pH 7.4, 32° C.; for extent of conversion by A.O. protease: chirally pure prodrug; for catalytic efficiency as Vmax/(U/mL of A.O. protease): pH 7.4, 32° C.
Protocol: Enzyme Kinetics. To determine the enzyme kinetic parameters KM and Vmax for a prodrug/enzyme system, various concentrations of prodrug were incubated in assay buffer, pH 7.4 containing A.O. protease, at 32° C., for a fixed time period t, at which point the reaction was stopped using methanol as an enzyme denaturant. […] The reactions were carried out to times when there was already substantial conversion. Concentrations of product, Cd(t) were fit against initial prodrug concentrations, Cp (0), using the integrated Michaelis-Menten equation: Cd(t)+KM ln[1−Cd(t)/Cp(0)]=Vmaxt (1) Fitting was carried out using the Matlab nlinfit function (Mathworks).
AVFm and AVFp (each at 480 μM) were incubated with A.O. protease (2-8 U/mL) in assay buffer over various time intervals in assay buffer pH 7.4 at 32° C.
The Michaelis Menten parameters for AVFp reactions were determined by carrying out reactions for t=5 min in solutions containing A.O. protease.
The extent of reaction was determined after t=12 min with MDZ-pro incubated, at different concentrations, in assay buffer with 4 U/ml A.O. protease.

[3] = system: A.O. protease; assay: Conversion of prodrug by A.O. protease on apical side of MDCKII-wt monolayers, supersaturated drug; format: in vitro ADME, Aspergillus Oryzae; conditions: for precipitates of supersaturated drug formed from prodrug/enzyme: apical compartment after prodrug/A.O. protease administration
Protocol: The same was also shown for MDZ-pro. The experiments were carried out as follows.
Appropriate molar concentrations of MDZ-pro equivalent to supersaturated MDZ solution were incubated with the converting enzyme in assay buffer, pH 7.4 at 32° C. (nasal temperature). Supersaturation potential, S, was calculated as the ratio between the molar concentration of administered MDZ-pro and the molar concentration of saturated MDZ:
Rapidly mixed solutions of chirally pure MDZ-pro and A.O protease were administered onto the apical side of MDCKII-wt monolayers and MDZ-pro, and MDZ concentrations were analyzed on both the apical and basal sides as a function of time. An example of prodrug and drug kinetics in the apical compartment is shown in FIG. 5b (MDZ-pro 326 μM, A.O. protease 16 U/mL). Rapid conversion of prodrug (complete within 30 min) was followed by an extended residence of supersaturated drug in the apical chamber, with supersaturation reached in less than 5 min. […] Apical concentrations of MDZ were close to those predicted, based on a two compartment model with input due to enzymatic conversion of MDZ-pro to MDZ, with assumed rate constant kconv=Vmax/KM.

[4] = system: MDCKII-wt monolayers; assay: Monolayer intactness by TEER and Lucifer yellow permeability after 2 h exposure; conditions: A.O. protease 1-16 U/mL
Protocol: as §2

[5] = MDZ equilibrium solubility in assay buffer; format: physicochemical; conditions: aqueous buffer, thermodynamic from solid; assay buffer pH 7.4, 32° C.
Protocol: Equilibrium solubility of MDZ in assay buffer was determined at three temperatures: 25, 32 and 37° C. There was essentially no effect of temperature on drug thermodynamic solubility within this temperature range.

[6] = Membrane permeation across MDCKII-wt monolayers (Transwell); conditions: dog, MDCK
Protocol: as §1, §2, §3, §4

[7] = AVFp to DZP, 0.25 U/ml A.O. protease, t=5 min
[8] = MDZ-pro to MDZ, 4 U/ml A.O. protease, t=12 min, estimates (s.e.m.)
[9] = MDZ-pro 326 μM, A.O. protease 16 U/mL, apical compartment

## CN(C(=O)CNC(=O)[C@@H](N)CCCCN)c1ccc(Cl)cc1C(=O)c1ccccc1 [AVF, Avizafone]
[1]; AVF/enzyme administered on the apical side
  permeation of prodrug across the membrane: not to permeate the membrane significantly
[1]; in the absence of enzyme, AVF pure or mix (data not shown)
  permeation of prodrug across the monolayer: negligible permeation

## CN(C(=O)CNC(=O)[C@@H](N)CCCCN)c1ccc(Cl)cc1C(=O)c1ccccc1 [AVFm]
[2]
  conversion of prodrug to DZP: ~70%

## CN(C(=O)CNC(=O)[C@@H](N)CCCCN)c1ccc(Cl)cc1C(=O)c1ccccc1 [AVFp, Avizafone Hydrochloride]
[2]; Hydrochloride
  conversion of prodrug to DZP: 100%
[2]; [7]
  Km: 3.38 ± 0.34 mM
  Vmax: 0.518 ± 0.030 mM/min
[2]
  extent of conversion by A.O. protease: complete conversion
  catalytic efficiency as Vmax/(U/mL of A.O. protease): 2.07 mM/min/(U/ml)
[1]; 900 μM prodrug, A.O. protease 4 U/mL, apical, pH 7.4, 32° C., each time point
  rate and amount of DZP permeation compared with enantiomeric mixture AVFm: greater

## CN1C(=O)CN=C(c2ccccc2)c2cc(Cl)ccc21 [DZP, diazepam]
[3]
  precipitates of supersaturated drug formed from prodrug/enzyme: no evidence of formation of DZP precipitates

## Cc1ncc2n1-c1ccc(Cl)cc1C(c1ccccc1F)=NC2 [MDZ, midazolam]
[4]
  % TEER values: unaffected
[5]
  solubility thermodynamic: 55 µM and 15.5 µg/mL
[3]
  precipitates of supersaturated drug formed from prodrug/enzyme: none were found
[6]
  Papp A→B at 55 μM: 26.5 ×10⁻⁶ cm/s
[1]; MDZ 55 μM (S=1) apical, 12-well Transwell, two compartment model fit
  clearance CL of the membrane: 0.11 ± 0.01 mL/h

## Cc1ncc(CNC(=O)[C@@H](N)CCCCN)n1-c1ccc(Cl)cc1C(=O)c1ccccc1F [MDZ-pro, Midazolam L-Lysine Prodrug]
[4]
  % TEER values: unaffected
[2]; [8]
  Km: 5.86 ± 0.83 mM
  Vmax: 0.233 ± 0.022 mM/min
[2]
  extent of conversion by A.O. protease: complete conversion
  catalytic efficiency as Vmax/(U/mL of A.O. protease): 0.0582 mM/min/(U/ml)
[3]; [9]
  time to complete conversion of prodrug: ≤ 30 min
  time to reach supersaturation: less than 5 min
[1]; MDZ-pro alone (without enzyme), apical, 2 h, up to 2 mM
  conversion via endogenous enzymes: negligible conversion
[1]; MDZ-pro alone (without enzyme), apical, 2 h, up to 2 mM initial prodrug concentration
  prodrug permeation through MDCKII-wt monolayers: negligible prodrug permeation

— patent US10682310B2, “Therapeutic compounds and formulations for intranasal delivery” (priority 2015, dated 2020)
